{
  "source": "patent US10047050B2",
  "about": "“3,4-di-substituted pyridine compound, methods of using and compositions comprising the same” (ARDEA BIOSCIENCES, INC., priority 2011, dated 2018)",
  "test_system": "serum uric acid",
  "assay": "Multi-dose Phase I clinical trial, serum uric acid (sUA), once daily for 10 days",
  "assay_type": "in vivo, human",
  "conditions": "for % sUA change (from baseline), Mean (3-11) / Absolute sUA concentration, Mean (3-11): group 9, 10 mg once daily for 10 days, mean of subjects 3-11; for % sUA change (from baseline), Mean (4-12) / Absolute sUA concentration, Mean (4-12) / Absolute sUA concentration: group 7, 1 mg once daily for 10 days; for % sUA change (from baseline), Mean (4-12) / Absolute sUA concentration, Mean (4-12): mean of subjects 4-12; for Absolute sUA concentration: individual subjects 4-12",
  "source_text": "A Phase 1, Randomized, Double-Blind, Placebo-Controlled Study to Evaluate Safety, Tolerability, Pharmacokinetics and Preliminary Food Effect of Multiple Rising Doses of a URAT1 Inhibitor, in Healthy Adult Male Volunteers.\nFasted subjects receive oral doses of active or placebo, once daily, for 10 days, at the following doses:\n36 subjects in 3 dose groups, 12 subjects/group, are randomized […] to receive active (9/group) or placebo ([…]). All study procedures are the same regardless of whether subject receives active or placebo. Total duration of subject participation, including screening period, is ˜2-4 weeks, and the total volume of blood collected from each subject during the entire study <500 mL, (less than typically collected during a volunteer blood donation).\n5 mg, active and placebo, tablets packaged in 35 count HDPE bottles, stored at controlled room temperature (15-30° C.). Placebo tablets are designed to match the active tablets—identical size, form, taste, and color, and containing the same excipients. 1 mg doses were administered as oral solutions.\nSubjects dosed in the morning of Days 1-10 with ˜240 mL of room temp water.\nUrine, serum and plasma samples collected periodically\nPD samples frozen (−20° C.) and stored; all samples from a given subject assayed in a single analytical run.",
  "note": "“And” between values parts separate entries of the source, which are not always exact repeats. Equal entries are not always repeated.",
  "data": [
    {"molecule": "CC(C)(Sc1ccncc1-c1ccc(C#N)c2ccccc12)C(=O)O", "note": "[2-((3-(4-cyanonaphthalen-1-yl)pyridin-4-yl)thio)-2-methylpropanoic acid]", "values": [
      {"measurement": "% sUA change (from baseline), Mean (3-11)", "setting": "Time 0 (baseline)", "result": 0, "unit": "%"},
      {"measurement": "Absolute sUA concentration, Mean (3-11)", "setting": "Time 0 (baseline)", "result": 6.4, "unit": "mg/dL"},
      {"measurement": "% sUA change (from baseline), Mean (3-11)", "setting": "Time 6", "result": "−30.2", "unit": "%"},
      {"measurement": "Absolute sUA concentration, Mean (3-11)", "setting": "Time 6", "result": 4.5, "unit": "mg/dL"},
      {"measurement": "% sUA change (from baseline), Mean (3-11)", "setting": "Time 12", "result": "−36.8", "unit": "%"},
      {"measurement": "Absolute sUA concentration, Mean (3-11)", "setting": "Time 12", "result": 4.1, "unit": "mg/dL"},
      {"measurement": "% sUA change (from baseline), Mean (3-11)", "setting": "Time 24", "result": "−32.0", "unit": "%"},
      {"measurement": "Absolute sUA concentration, Mean (3-11)", "setting": "Time 24", "result": 4.4, "unit": "mg/dL"},
      {"measurement": "% sUA change (from baseline), Mean (3-11)", "setting": "Time 48", "result": "−35.0", "unit": "%"},
      {"measurement": "Absolute sUA concentration, Mean (3-11)", "setting": "Time 48", "result": 4.1, "unit": "mg/dL"},
      {"measurement": "% sUA change (from baseline), Mean (3-11)", "setting": "Time 72", "result": "−49.7", "unit": "%"},
      {"measurement": "Absolute sUA concentration, Mean (3-11)", "setting": "Time 72", "result": 3.2, "unit": "mg/dL"},
      {"measurement": "% sUA change (from baseline), Mean (3-11)", "setting": "Time 96", "result": "−53.7", "unit": "%"},
      {"measurement": "Absolute sUA concentration, Mean (3-11)", "setting": "Time 96", "result": 3.0, "unit": "mg/dL"},
      {"measurement": "% sUA change (from baseline), Mean (3-11)", "setting": "Time 102", "result": "−55.2", "unit": "%"},
      {"measurement": "Absolute sUA concentration, Mean (3-11)", "setting": "Time 102", "result": 2.9, "unit": "mg/dL"},
      {"measurement": "% sUA change (from baseline), Mean (3-11)", "setting": "Time 108", "result": "−57.2", "unit": "%"},
      {"measurement": "Absolute sUA concentration, Mean (3-11)", "setting": "Time 108", "result": 2.7, "unit": "mg/dL"},
      {"measurement": "% sUA change (from baseline), Mean (3-11)", "setting": "Time 120", "result": "−47.0", "unit": "%"},
      {"measurement": "Absolute sUA concentration, Mean (3-11)", "setting": "Time 120", "result": 3.4, "unit": "mg/dL"},
      {"measurement": "% sUA change (from baseline), Mean (3-11)", "setting": "Time 144", "result": "−44.3", "unit": "%"},
      {"measurement": "Absolute sUA concentration, Mean (3-11)", "setting": "Time 144", "result": 3.5, "unit": "mg/dL"},
      {"measurement": "% sUA change (from baseline), Mean (3-11)", "setting": "Time 168", "result": "−49.6", "unit": "%"},
      {"measurement": "Absolute sUA concentration, Mean (3-11)", "setting": "Time 168", "result": 3.2, "unit": "mg/dL"},
      {"measurement": "% sUA change (from baseline), Mean (3-11)", "setting": "Time 192", "result": "−55.8", "unit": "%"},
      {"measurement": "Absolute sUA concentration, Mean (3-11)", "setting": "Time 192", "result": 2.8, "unit": "mg/dL"},
      {"measurement": "% sUA change (from baseline), Mean (3-11)", "setting": "Time 216", "result": "−51.3", "unit": "%"},
      {"measurement": "Absolute sUA concentration, Mean (3-11)", "setting": "Time 216", "result": 3.1, "unit": "mg/dL"},
      {"measurement": "% sUA change (from baseline), Mean (3-11)", "setting": "Time 222, post dosing", "result": "−56.1", "unit": "%"},
      {"measurement": "Absolute sUA concentration, Mean (3-11)", "setting": "Time 222, post dosing", "result": 2.8, "unit": "mg/dL"},
      {"measurement": "% sUA change (from baseline), Mean (3-11)", "setting": "Time 228, post dosing", "result": "−57.8", "unit": "%"},
      {"measurement": "Absolute sUA concentration, Mean (3-11)", "setting": "Time 228, post dosing", "result": 2.7, "unit": "mg/dL"},
      {"measurement": "% sUA change (from baseline), Mean (3-11)", "setting": "Time 240, post dosing", "result": "−48.6", "unit": "%"},
      {"measurement": "Absolute sUA concentration, Mean (3-11)", "setting": "Time 240, post dosing", "result": 3.3, "unit": "mg/dL"},
      {"measurement": "% sUA change (from baseline), Mean (3-11)", "setting": "Time 246, post dosing", "result": "−42.8", "unit": "%"},
      {"measurement": "Absolute sUA concentration, Mean (3-11)", "setting": "Time 246, post dosing", "result": 3.7, "unit": "mg/dL"},
      {"measurement": "% sUA change (from baseline), Mean (3-11)", "setting": "Time 252, post dosing", "result": "−43.6", "unit": "%"},
      {"measurement": "Absolute sUA concentration, Mean (3-11)", "setting": "Time 252, post dosing", "result": 3.6, "unit": "mg/dL"},
      {"measurement": "% sUA change (from baseline), Mean (3-11)", "setting": "Time 264, post dosing", "result": "−38.9", "unit": "%"},
      {"measurement": "Absolute sUA concentration, Mean (3-11)", "setting": "Time 264, post dosing", "result": 3.9, "unit": "mg/dL"},
      {"measurement": "% sUA change (from baseline), Mean (3-11)", "setting": "Time 270, post dosing", "result": "−36.1", "unit": "%"},
      {"measurement": "Absolute sUA concentration, Mean (3-11)", "setting": "Time 270, post dosing", "result": 4.1, "unit": "mg/dL"},
      {"measurement": "% sUA change (from baseline), Mean (3-11)", "setting": "Time 288, post dosing", "result": "−35.1", "unit": "%"},
      {"measurement": "Absolute sUA concentration, Mean (3-11)", "setting": "Time 288, post dosing", "result": 4.2, "unit": "mg/dL"},
      {"measurement": "% sUA change (from baseline), Mean (3-11)", "setting": "Time 312, post dosing", "result": "−25.9", "unit": "%"},
      {"measurement": "Absolute sUA concentration, Mean (3-11)", "setting": "Time 312, post dosing", "result": 4.7, "unit": "mg/dL"},
      {"measurement": "% sUA change (from baseline), Mean (4-12)", "setting": "Time 0", "result": 0, "unit": "%"},
      {"measurement": "Absolute sUA concentration, Mean (4-12)", "setting": "Time 0", "result": 6.2, "unit": "mg/dL"},
      {"measurement": "% sUA change (from baseline), Mean (4-12)", "setting": "Time 6", "result": "−3.0", "unit": "%"},
      {"measurement": "Absolute sUA concentration, Mean (4-12)", "setting": "Time 6", "result": 6.0, "unit": "mg/dL"},
      {"measurement": "% sUA change (from baseline), Mean (4-12)", "setting": "Time 12", "result": "−9.2", "unit": "%"},
      {"measurement": "Absolute sUA concentration, Mean (4-12)", "setting": "Time 12", "result": 5.6, "unit": "mg/dL"},
      {"measurement": "% sUA change (from baseline), Mean (4-12)", "setting": "Time 24", "result": 1.4, "unit": "%"},
      {"measurement": "Absolute sUA concentration, Mean (4-12)", "setting": "Time 24", "result": 6.2, "unit": "mg/dL"},
      {"measurement": "% sUA change (from baseline), Mean (4-12)", "setting": "Time 48", "result": "−17.6", "unit": "%"},
      {"measurement": "Absolute sUA concentration, Mean (4-12)", "setting": "Time 48", "result": 5.1, "unit": "mg/dL"},
      {"measurement": "% sUA change (from baseline), Mean (4-12)", "setting": "Time 72", "result": "−3.4", "unit": "%"},
      {"measurement": "Absolute sUA concentration, Mean (4-12)", "setting": "Time 72", "result": 6.0, "unit": "mg/dL"},
      {"measurement": "Absolute sUA concentration", "setting": "Time 96", "result": "5.0 mg/dL (2×) and 5.1 mg/dL (2×) and 6.7 mg/dL (2×) and 6.1 mg/dL and 6.0 mg/dL and 5.5 mg/dL"},
      {"measurement": "% sUA change (from baseline), Mean (4-12)", "setting": "Time 96", "result": "−7.9", "unit": "%"},
      {"measurement": "Absolute sUA concentration, Mean (4-12)", "setting": "Time 96", "result": 5.7, "unit": "mg/dL"},
      {"measurement": "Absolute sUA concentration", "setting": "Time 102", "result": "4.4 mg/dL and 4.9 mg/dL (2×) and 6.2 mg/dL (2×) and 5.9 mg/dL and 5.7 mg/dL and 4.6 mg/dL and 5.4 mg/dL"},
      {"measurement": "% sUA change (from baseline), Mean (4-12)", "setting": "Time 102", "result": "−13.2", "unit": "%"},
      {"measurement": "Absolute sUA concentration, Mean (4-12)", "setting": "Time 102", "result": 5.4, "unit": "mg/dL"},
      {"measurement": "Absolute sUA concentration", "setting": "Time 108", "result": "4.1 mg/dL and 4.4 mg/dL and 4.8 mg/dL and 6.1 mg/dL and 5.9 mg/dL and 5.4 mg/dL and 5.6 mg/dL and 4.3 mg/dL and 5.0 mg/dL"},
      {"measurement": "% sUA change (from baseline), Mean (4-12)", "setting": "Time 108", "result": "−18.0", "unit": "%"},
      {"measurement": "Absolute sUA concentration, Mean (4-12)", "setting": "Time 108", "result": 5.1, "unit": "mg/dL"},
      {"measurement": "Absolute sUA concentration", "setting": "Time 120", "result": "4.6 mg/dL and 5.0 mg/dL (2×) and 4.9 mg/dL and 6.6 mg/dL and 6.2 mg/dL (2×) and 5.8 mg/dL and 5.6 mg/dL"},
      {"measurement": "% sUA change (from baseline), Mean (4-12)", "setting": "Time 120", "result": "−10.3", "unit": "%"},
      {"measurement": "Absolute sUA concentration, Mean (4-12)", "setting": "Time 120", "result": 5.5, "unit": "mg/dL"},
      {"measurement": "Absolute sUA concentration", "setting": "Time 144", "result": "4.6 mg/dL and 5.0 mg/dL (2×) and 4.8 mg/dL and 6.5 mg/dL and 6.2 mg/dL and 6.1 mg/dL and 5.8 mg/dL and 5.5 mg/dL"},
      {"measurement": "% sUA change (from baseline), Mean (4-12)", "setting": "Time 144", "result": "−11.0", "unit": "%"},
      {"measurement": "Absolute sUA concentration, Mean (4-12)", "setting": "Time 144", "result": 5.5, "unit": "mg/dL"},
      {"measurement": "Absolute sUA concentration", "setting": "Time 168", "result": "5.2 mg/dL and 5.8 mg/dL and 5.6 mg/dL and 7.2 mg/dL and 6.8 mg/dL and 6.3 mg/dL and 6.5 mg/dL and 5.4 mg/dL and 6.2 mg/dL"},
      {"measurement": "% sUA change (from baseline), Mean (4-12)", "setting": "Time 168", "result": "−0.8", "unit": "%"}
    ]}
  ]
}
